From ChEMBL document CHEMBL1153202, “Optimization of piperidyl-ureas as inhibitors of soluble epoxide hydrolase” (Bioorg Med Chem Lett, 2010)
Values after ≈ are worked out from the molar mass of the structure shown.

What was measured:
[1] = Solubility of the compound; format: physicochemical
[2] = Plasma concentration in Sprague-Dawley rat at 5 mg/kg, po after 4 hrs by LC-MS/MS analysis; format: ADME, organism-based; set-up: dose 5 mg/kg, route oral
[3] = Plasma concentration in Sprague-Dawley rat at 30 mg/kg, po after 4 hrs by LC-MS/MS analysis; format: ADME, organism-based; set-up: dose 30 mg/kg, route oral
[4] = Plasma concentration in Sprague-Dawley rat at 5 mg/kg, po after 1 hr by LC-MS/MS analysis; format: ADME, organism-based; set-up: dose 5 mg/kg, route oral
[5] = Plasma concentration in Sprague-Dawley rat at 5 mg/kg, po after 2 hrs by LC-MS/MS analysis; format: ADME, organism-based; set-up: dose 5 mg/kg, route oral
[6] = Plasma concentration in Sprague-Dawley rat at 5 mg/kg, po after 6 hrs by LC-MS/MS analysis; format: ADME, organism-based; set-up: dose 5 mg/kg, route oral

| solubility [1] [mg/mL] | concentration at 4 h [2] [µM] | concentration at 4 h [3] [µM] | concentration at 1 h [4] [µM] | concentration at 2 h [5] [µM] | concentration at 6 h [6] [µM] | SMILES |
| --- | --- | --- | --- | --- | --- | --- |
| 0.0034 (≈ 8.96 µM) | 0.1 |  |  |  |  | O=C(NCc1ccc(Cl)cc1Cl)N1CCC(Oc2ccccc2)CC1 |
| 0.174 (≈ 456 µM) | 1.3 |  |  |  |  | O=C(NCc1ccc(Cl)cc1Cl)N1CCC(Oc2ncccn2)CC1 |
|  |  | 2.8 |  |  |  | O=C(Nc1ccc(OC(F)(F)F)cc1)N1CCC(n2cccc2)CC1 |
|  | 3.8 |  | 1.7 | 2.66 | 5.43 | O=C(O)c1ccc(OC2CCN(C(=O)NCc3ccc(Cl)cc3Cl)CC2)cc1 |
